Test results: US20190021380A1 (priority 2014, published 2019)
Counter-ions that a name gives are not always drawn. Like-named read-outs stand apart in the source and are kept apart here.

Legend:
cat T1R1/T1R3 receptor = cat T1R1/T1R3 receptor (Felis catus, UniProt E3UMS2); assay: cell-based; settings: for function as activators of T1R1/T1R3: in the presence of alanine, in words; for Max resp % of IMP / Max. resp. % of IMP: hek293 cells
From the text: (§1) HEK293 cells that stably express T1R3 and inducibly express T1R1 were exposed to nucleotide derivatives alone or in combination with one or more amino acids and/or one or more nucleotides to activate the umami receptor. Activation of the T1R1/T1R3 receptor was detected by a change in intracellular calcium levels using a calcium sensitive fluorescent dye and/or a luminescent reporter system. Cells that express T1R3 but not T1R1 were used as a control. A FLIPR® Tetra or a FlexStation® 3 was used for data capture.

T1R1/T1R3 receptor = T1R1/T1R3 receptor (Felis catus, UniProt E3UMS2); assay type: cell-based; settings: threshold in the presence of 0.2 mM IMP; CNBD = Could not be determined
From the text: as §1, with “transmembrane compounds” for “nucleotide derivatives”, “dye.” for “dye and/or a luminescent reporter system.”
In each experiment, serial dilutions of up to 10 mM of the transmembrane compound were added to the T1R1/T1R3-expressing cells.

[1] = in the presence of 20 mM alanine, read-out: EC50-with Ala

With “2′-, 3′-O—(N′-methylanthraniloyl)guanosine-5′-O-monophosphate” the “function as activators of T1R1/T1R3” value (cat T1R1/T1R3 receptor) was “activators of T1R1/T1R3”.

`CC(C)CC(NC(=O)c1ccccc1)C(N)=O` (racemic) was tested, and the “Thres +IMP (0.2 mM)” value (T1R1/T1R3 receptor) was 0.1 mM.

`Nc1ncnc2c1ccn2[C@H]1O[C@@H](COP(=O)(O)O)[C@H](O)[C@@H]1O` (stereo in doubt) [7-Deazaadenosine-5′-O-monophosphate] was tested, and the “Thres” value (cat T1R1/T1R3 receptor) was 0.188 mM.

`O=c1ccn([C@H]2O[C@@H](COP(=O)(O)O)[C@H](O)[C@@H]2O)c(=O)[nH]1` (stereo in doubt) [Uridine 5′-monophosphate disodium salt, reference compound] was tested, and the “Thres” value (cat T1R1/T1R3 receptor) was 3.000 mM.

With `O=c1ccn([C@H]2O[C@@H](COP(=O)(O)O)[C@H](O)[C@@H]2O)c(=O)[nH]1` (stereo in doubt) [Uridine 5′-monophosphate disodium salt] the EC50 (cat T1R1/T1R3 receptor; EC50-with Ala (mM)) was > 30 mM.

For `O=P(O)(O)OC[C@H]1O[C@@H](n2cnc3c2ncn2ccnc32)[C@H](O)[C@@H]1O` [1,N6-Ethenoadenosine-5′-O-monophosphate], the “Thres” value (cat T1R1/T1R3 receptor) was 0.010 mM.

In the case of `Nc1nc(Cl)c2ncn(C3OC(COP(=O)(O)O)C(O)C3O)c2n1` (stereo not drawn) [2-amino-6-chloropurineriboside-5′-O-monophosphate], the Activity (cat T1R1/T1R3 receptor) is reported as “active”, the “Thres” value (cat T1R1/T1R3 receptor) is reported as 0.00013 mM and the “Threshold” value (cat T1R1/T1R3 receptor) is reported as 0.00013 mM.

With `O=P(O)(O)OC[C@H]1O[C@@H](n2cnc3c2ncn2ccnc32)C[C@@H]1O` [2′-Deoxy-1,N6-ethenoadenosine-5′-O-monophosphate] the “Thres” value (cat T1R1/T1R3 receptor) was 0.05 mM and the EC50 (cat T1R1/T1R3 receptor; [1]) was 0.2 mM.

`CNc1ccccc1C(=O)O[C@H]1C[C@H](n2cnc3c(=O)[nH]c(N)nc32)O[C@@H]1COP(=O)(O)O` [2′-Deoxy-3′-O-(N′-methylanthraniloyl) guanosine-5′-O-monophosphate] was tested, and the Activity (cat T1R1/T1R3 receptor) was “active”, the “Thres” value (cat T1R1/T1R3 receptor) was 0.0025 mM and the “Max resp % of IMP” value (cat T1R1/T1R3 receptor) was 23.7 % of IMP. The “Max. resp. % of IMP” value (cat T1R1/T1R3 receptor) was 23.7 % of IMP and the “function as activators of T1R1/T1R3” value (cat T1R1/T1R3 receptor) was “activators of T1R1/T1R3”.

In the case of `CNc1ccccc1C(=O)O[C@H]1C[C@H](n2cnc3c(N)ncnc32)O[C@@H]1COP(=O)(O)O` [2′-Deoxy-3′-O-(N′-methylanthraniloyl)adenosine-5′-O-monophosphate], the “Thres” value (cat T1R1/T1R3 receptor) is reported as 0.0025 mM and the EC50 (cat T1R1/T1R3 receptor; [1]) is reported as 0.01 mM.

In the case of `Nc1ncnc2c1ncn2[C@H]1C[C@H](O)[C@@H](COP(=O)(O)O)O1` [2′-Deoxyadenosine 5′-monophosphate], the “Thres” value (cat T1R1/T1R3 receptor) is reported as 0.035 mM.

For `Nc1ncnc2c1ncn2[C@H]1CC(OP(=O)(O)O)[C@@H](COP(=O)(O)O)O1` (stereo partly drawn) [2′-Deoxyadenosine-3′,5′-O-bisphosphate], the “Thres” value (cat T1R1/T1R3 receptor) was 0.005 mM.

With `Nc1ncnc2c1ncn2C1CC(O)C(COP(O)(O)=S)O1` (stereo not drawn) [2′-Deoxyadenosine-5′-O-monophosphorothioate] the “Thres” value (cat T1R1/T1R3 receptor) was 0.015 mM.

`Nc1nc2c(ncn2[C@H]2C[C@H](OP(=O)(O)O)[C@@H](COP(=O)(O)O)O2)c(=O)[nH]1` [2′-Deoxyguanosine-3′,5′-O-bisphosphate] was tested, and the Activity (cat T1R1/T1R3 receptor) was “active”, the “Max resp ΔF/F” value (cat T1R1/T1R3 receptor) was 1.8925 ΔF/F and the “Max resp. (ΔF/F)” value (cat T1R1/T1R3 receptor) was 1.8925 ΔF/F. The “Thres” value (cat T1R1/T1R3 receptor) was 0.005 mM, the “Threshold” value (cat T1R1/T1R3 receptor) was 0.005 mM and the “Max resp % of IMP” value (cat T1R1/T1R3 receptor) was 152.3 % of IMP. For the same compound, the “Max. resp. % of IMP” value (cat T1R1/T1R3 receptor) was 152.3 % of IMP, the EC50 (cat T1R1/T1R3 receptor; [1]) was 0.02 mM and the “function as activators of T1R1/T1R3” value (cat T1R1/T1R3 receptor) was “activators of T1R1/T1R3”.

With `Nc1nc2c(ncn2[C@H]2C[C@H](O)[C@@H](COP(O)(O)=S)O2)c(=O)[nH]1` [2′-Deoxyguanosine-5′-O-monophosphorothioate (5′-dGMPS)] the “Thres” value (cat T1R1/T1R3 receptor) was 0.005 mM.

For `Nc1nc2c(ncn2[C@H]2C[C@H](O)[C@@H](COP(O)(O)=S)O2)c(=O)[nH]1` [2′-Deoxyguanosine-5′-O-monophosphorothioate,sodiumsalt], the “Thres” value (cat T1R1/T1R3 receptor) was 0.0025 mM and the “Max resp % of IMP” value (cat T1R1/T1R3 receptor) was 86.7 % of IMP.

With `O=c1[nH]cnc2c1ncn2C1CC(O)C(COP(O)(O)=S)O1` (stereo not drawn) [2′-Deoxyinosine-5′-O-monophosphorothioate] the “Thres” value (cat T1R1/T1R3 receptor) was 0.025 mM.

In the case of `O=c1ccn([C@H]2C[C@H](O)[C@@H](COP(O)(O)=S)O2)c(=O)[nH]1` [2′-Deoxyuridine-5′-O-monophosphosphorothioate (5′-dUMPS)], the Activity (cat T1R1/T1R3 receptor) is reported as “active”, the “Max resp ΔF/F” value (cat T1R1/T1R3 receptor) is reported as 0.4200 ΔF/F and the “Max resp. (ΔF/F)” value (cat T1R1/T1R3 receptor) is reported as 0.4200 ΔF/F. The “Thres” value (cat T1R1/T1R3 receptor) was 5.000 mM, the “Threshold” value (cat T1R1/T1R3 receptor) was 5.000 mM and the “Max resp % of IMP” value (cat T1R1/T1R3 receptor) was 43.4 % of IMP.

For `O=c1ccn([C@H]2C[C@H](O)[C@@H](COP(O)(O)=S)O2)c(=O)[nH]1` [2′-Deoxyuridine-5′-O-monophosphosphorothioate], the EC50 (cat T1R1/T1R3 receptor; EC50 (mM)) was > 30 mM and the EC50 (cat T1R1/T1R3 receptor; EC50-with Ala (mM)) was > 30 mM.

`NC(=O)c1ncn(C2OC(COP(=O)(O)O)C(O)C2O)c1N` [5-Aminoimidazole-4-carboxamide-1-β-D-ribofuranosyl 5′-monophosphate] was tested, and the “Thres” value (cat T1R1/T1R3 receptor) was 0.200 mM.

For `O=P(O)(O)OC[C@H]1O[C@@H](n2cnc3c(Cl)ncnc32)C(O)C1O` (stereo partly drawn) [6-Chloropurineriboside-5′-O-monophosphate], the “Thres” value (cat T1R1/T1R3 receptor) was 0.0005 mM.

With `O=P(O)(O)OCC1OC(n2cnc3c(Cl)ncnc32)C(O)C1O` (stereo not drawn) [6-chloropurineriboside-5′-O-monophosphate] the “function as activators of T1R1/T1R3” value (cat T1R1/T1R3 receptor) was “activators of the T1R1/T1R3 receptor”.

`Nc1nc2c(ncn2[C@@H]2O[C@H](COP(=O)(O)O)[C@@H](O)[C@H]2O)c(=S)[nH]1` [6-thioguanosine-5′-O-monophosphate] was tested, and the EC50 (cat T1R1/T1R3 receptor; [1]) was 0.0009 mM and the “function as activators of T1R1/T1R3” value (cat T1R1/T1R3 receptor) was “activators of T1R1/T1R3”.

`Nc1nc2c(nc(Br)n2[C@@H]2O[C@H](COP(=O)(O)O)[C@@H](O)[C@H]2O)c(=O)[nH]1` [8-Bromoguanosine-5′-O-monophosphate] was tested, and the “Thres” value (cat T1R1/T1R3 receptor) was 1 mM.

For `Nc1ncnc2c1nc(Cl)n2[C@@H]1O[C@H](COP(=O)(O)O)[C@@H](O)[C@H]1O` [8-Chloroadenosine-5′-O-monophosphate], the “Thres” value (cat T1R1/T1R3 receptor) was 0.2 mM, the EC50 (cat T1R1/T1R3 receptor; EC50 (mM), + Alanine (20 mM), Table 15) was 0.8 mM and the “Max resp % of IMP” value (cat T1R1/T1R3 receptor) was 63.6 % of IMP. For the same compound, the “Max. resp. % of IMP” value (cat T1R1/T1R3 receptor) was 63.6 % of IMP.

For `Nc1ncnc2c1ncn2C1OC(COP(=O)(O)O)C(OP(=O)(O)O)C1O` (stereo not drawn) [Adenosine 3′,5′-diphosphate sodium salt, adenosine 3′,5′-diphosphate], the “Thres” value (cat T1R1/T1R3 receptor) was 0.00025 mM.

In the case of `Nc1ncnc2c1ncn2[C@@H]1O[C@H](COP(=O)(O)O)[C@@H](O)[C@H]1O` [Adenosine 5′-monophosphate disodium salt, reference compound], the “Thres” value (cat T1R1/T1R3 receptor) is reported as 0.003 mM.

`Nc1ncnc2c1ncn2C1OC(COP(=O)(O)OS(=O)(=O)O)C(O)C1O` (stereo not drawn) [Adenosine 5′-phosphosulfate sodium salt, Adenosine 5′-phosphosulfate] was tested, and the “Thres” value (cat T1R1/T1R3 receptor) was 0.008 mM and the EC50 (cat T1R1/T1R3 receptor; EC50 (mM)) was 0.03 mM.

`Nc1nc2c(ncn2[C@@H]2O[C@H](COP(=O)(O)O)[C@@H](O)[C@H]2O)c(=O)[nH]1` [GMP, guanosine monophosphate, reference compound] was tested, and the EC50 (cat T1R1/T1R3 receptor; [1]) was 0.02 mM.

With `Nc1nc2c(ncn2[C@@H]2O[C@H](COP(=O)(O)OP(=O)(O)O)[C@@H](O)[C@H]2O)c(=O)[nH]1` [Guanosine 5′-diphosphate sodium salt, Guanosine 5′-diphosphate] the “Thres” value (cat T1R1/T1R3 receptor) was 0.050 mM.

In the case of `Nc1nc2c(ncn2[C@@H]2O[C@H](COP(=O)(O)OP(=O)(O)OP(=O)(O)O)[C@@H](O)[C@H]2O)c(=O)[nH]1` [Guanosine 5′-triphosphate], the Activity (cat T1R1/T1R3 receptor) is reported as “active” and the “Thres” value (cat T1R1/T1R3 receptor) is reported as 0.175 mM.

With `Nc1nc2c(ncn2[C@@H]2O[C@H](COP(O)(O)=S)C(O)C2O)c(=O)[nH]1` (stereo partly drawn) [Guanosine-5′-monophosphorothioate] the “Thres” value (cat T1R1/T1R3 receptor) was 0.0025 mM and the “function as activators of T1R1/T1R3” value (cat T1R1/T1R3 receptor) was “activators of T1R1/T1R3”.

`CNc1ncnc2c1ncn2[C@H]1C[C@H](OP(=O)(O)O)[C@@H](COP(=O)(O)O)O1` [MRS 2179 ammonium salt hydrate, 2′-Deoxy-N^6-methyl adenosine 3′,5′-diphosphate diammonium salt] was tested, and the Activity (cat T1R1/T1R3 receptor) was “active” and the “Thres” value (cat T1R1/T1R3 receptor) was 0.013 mM.

For `O=P(O)(O)OC[C@H]1O[C@@H](n2cnc3c(NC4CCCC4)ncnc32)[C@H](O)[C@@H]1O` [N6-Cyclopentyladenosine-5′-O-monophosphate], the “Thres” value (cat T1R1/T1R3 receptor) was 0.013 mM.

With `CNc1ncnc2c1ncn2[C@@H]1O[C@H](COP(=O)(O)O)[C@@H](O)[C@H]1O` [N6-Methyladenosine 5′-monophosphate] the “Thres” value (cat T1R1/T1R3 receptor) was 0.020 mM.

In the case of `CC(=O)Nc1nc2c(ncn2[C@@H]2O[C@H](COP(=O)(O)O)[C@@H](O)[C@H]2O)c(=O)[nH]1` [N-Acetyl-5′-GMP], the “Thres” value (cat T1R1/T1R3 receptor) is reported as 0.025 mM.

In the case of `NC(=O)c1ncn(C2OC(COP(=O)(O)O)C(O)C2O)n1` (stereo not drawn) [Ribavirin 5′-Monophosphate], the “Thres” value (cat T1R1/T1R3 receptor) is reported as 0.175 mM.

With `O=c1ccn([C@@H]2O[C@H](COP(=O)(O)O)[C@@H](O)[C@H]2O)c(=O)[nH]1` [UMP, uridine monophosphate, reference compound] the EC50 (cat T1R1/T1R3 receptor; EC50-with Ala (mM)) was > 30 mM.

`Nc1ncnc2c1ncn2[C@@H]1O[C@H](COP(=O)(O)O)[C@@H](O)[C@H]1O` [adenosine monophosphate (AMP), adenosine monophosphate, reference compound] was tested, and the EC50 (cat T1R1/T1R3 receptor; EC50-with Ala (mM)) was 0.011 mM.

`O=c1nc[nH]c2c1ncn2C1O[C@H](COP(=O)(O)OP(=O)(O)OP(=O)(O)O)[C@@H](O)[C@H]1O` (stereo partly drawn) [inosine triphosphate (ITP) trisodium salt] was tested, and the “Max resp ΔF/F” value (cat T1R1/T1R3 receptor) was 0.3 ΔF/F, the “Max resp. (ΔF/F)” value (cat T1R1/T1R3 receptor) was 0.3 ΔF/F and the “Thres” value (cat T1R1/T1R3 receptor) was 0.02 mM. For the same compound, the “Threshold” value (cat T1R1/T1R3 receptor) was 0.02 mM.

`O=c1[nH]c(=O)c2ncn([C@@H]3O[C@H](COP(=O)(O)O)[C@@H](O)[C@H]3O)c2[nH]1` [xanthosine monophosphate, reference compound] was tested, and the “Thres” value (cat T1R1/T1R3 receptor) was 0.025 mM.
